Laboratory results taken from patent US7943636B2 (dated 2011).

Molecule `CCCn1nc2c(N)nc3ccccc3c2c1CC1(O)CCC1` has a melting point of 191 to 193 °C.
`CCn1nc2c(N)nc3ccccc3c2c1CC1(O)CCOCC1` gave a melting point of 253 to 255 °C.
Molecule `CCn1nc2c(N)nc3ccccc3c2c1CC1(O)CCCCC1` has a melting point of 211.5 to 213 °C.
In the case of `CCn1nc2c(N)nc3ccccc3c2c1CC1(O)CCCC1`, the melting point was 256 to 259 °C.
`CCn1nc2c(N)nc3ccccc3c2c1CC1(O)CCC1` gave a melting point of 245 to 247 °C.
In the case of `CCn1nc2c(N)nc3ccccc3c2c1CC1(O)CCSCC1`, the melting point was 251.5 to 255 °C.
`CCn1nc2c(N)nc3ccccc3c2c1CC1(O)CCN(C(C)=O)CC1` showed a melting point of 231 to 232.5 °C.
For `CCn1nc2c(N)nc3ccccc3c2c1CC1(O)CCN(S(C)(=O)=O)CC1`, the melting point was 268 to 270 °C.
Molecule `CCCNC(=O)N1CCC(O)(Cc2c3c(nn2CC)c(N)nc2ccccc23)CC1` has a melting point of 208.5 to 210 °C.
In the case of `CCn1nc2c(N)nc3ccccc3c2c1CC1CCOCC1`, the melting point was 226 to 228 °C.
In the case of `CCn1nc2c(N)nc3c(c2c1CC1(O)CCCCC1)CCCC3`, the melting point was 232 to 234 °C.
In the case of `CCCn1nc2c(N)nc3ccccc3c2c1CC1(O)CCOCC1`, the melting point was 209 to 211 °C.
With `Cn1nc2c(N)nc3ccccc3c2c1CC1(F)CCN(S(C)(=O)=O)CC1` the melting point was 283 to 285 °C.
`CC(=O)N1CCC(F)(Cc2c3c(nn2C)c(N)nc2ccccc23)CC1` showed a melting point of 241 to 243 °C.
Molecule `CC(C)NC(=O)N1CCC(F)(Cc2c3c(nn2C)c(N)nc2ccccc23)CC1` has a melting point of 241 to 244 °C.
Molecule `CCn1nc2c(N)nc3ccccc3c2c1CC1(F)CCN(S(C)(=O)=O)CC1` has a melting point of 269 to 271 °C.
`CCn1nc2c(N)nc3ccccc3c2c1CC1(F)CCN(C(C)=O)CC1` showed a melting point of 228 to 230 °C.
For `CCn1nc2c(N)nc3ccccc3c2c1CC1(F)CCN(C(=O)NC(C)C)CC1`, the melting point was 205 to 207 °C.
In the case of `CCCn1nc2c(N)nc3ccccc3c2c1CC1(F)CCN(S(C)(=O)=O)CC1`, the melting point was 268 to 270 °C (dec.).
With `CCCn1nc2c(N)nc3ccccc3c2c1CC1(F)CCN(C(=O)NC(C)C)CC1` the melting point was 227 to 229 °C (dec.).
Work on `CCCn1nc2c(N)nc3ccccc3c2c1CC1CCOCC1` yielded a melting point of 218 to 220 °C.
`CCCn1nc2c(N)nc3ncccc3c2c1CC1CCOCC1` showed a melting point of 252 to 255 °C.
`COCCn1nc2c(N)nc3ccccc3c2c1CC1CCOCC1` gave a melting point of 189 to 190 °C.
`COCCn1nc2c(N)nc3ncccc3c2c1CC1CCOCC1` gave a melting point of 230 to 233 °C.
`Cn1nc2c(N)nc3ccccc3c2c1CC1(F)CCOCC1` showed a melting point of 252 to 254 °C.
In the case of `Cn1nc2c(N)nc3ccccc3c2c1CC1(O)CCOCC1`, the melting point was 260 to 262 °C (dec.).
Work on `CCn1nc2c(N)nc3ccccc3c2c1CC1(F)CCOCC1` yielded a melting point of 275 to 277 °C.
